# In patent publication US20200329698A1, “COMPOSITIONS FOR ORGAN GRAFT PRESERVATION AND METHODS OF USE” (Nobilis Therapeutics, Inc., priority 2019, published 2020):
# What was measured:
# brain = details: 70% argon; cited from earlier work
# [1] = system: Fischer rats renal grafts from cardiac arrest donation; experiment: DCD renal graft preservation with xenon or argon with or without dexmedetomidine, then transplantation; assay type: in vivo, rat; details: UW saturated with 70% gas, with or without Dex 0.1 nM; day 8 after transplantation
# Description: Briefly, after intravenous heparinization (300 U) in 1 ml saline via the penile vein under 2% isoflurane anaesthesia, cardiac arrest was induced by cervical dislocation (schedule 1 killing). The cessation of the heart beat was observed within 3-5 minutes and donor animals were kept for 40 minutes on a 37° C. pad.
# This protocol was obtained from our pilot studies and the both graft injury and a therapeutic window can be achieved. The preserving solution was saturated with 70% nitrogen, xenon or argon gas, combined with or without dexmedetomidine 0.1 nM [32]. […] Macrophage infiltration and renal fibrosis were attenuated by the treatments on day 16 after surgery (FIGS. 12A-12D).
# With respect to FIGS. 10A-10D, Fischer rats renal grafts from cardiac arrest donation were stored with UW preserving solution at 4° C., saturated with nitrogen or xenon or argon gas (70% N2 or Xe or Ar and 5% CO2 balanced with O2 supplemented with Dex), machine perfused for 4 hours and stored until 24 hours. Normal kidney graft serves as naive control (NC), grafts treated with preserving solution only served as sham, and the grafts were then transplanted into Lewis recipient and finally harvested day 8 after transplantation. (FIG. 10A) Renal morphology were assessed by H and E staining (n=4-6) and (FIG. 10B) evaluated by the injury scoring system. (FIG. 10C) TUNEL staining of renal tubules in renal cortex. […]
# [2] = system: ex vivo renal grafts from brain death or cardiac arrest donors; experiment: Rat hypothermic machine perfusion model; details: exposure of ex vivo grafts prior to engraftment
# [3] = system: renal grafts from live donor; details: preserving solution saturated with argon; cited from earlier work
# [4] = system: Lewis rat lung grafts extracted after cardiac death; experiment: DCD lung graft stored in Dex-saturated UW after donor treatment with Nrf-2 siRNA or atipamezole; details: given to donor before extraction
# Description: Nrf-2 siRNA or scrambled siRNAs (negative control) (QIAGEN®) were dissolved in siRNA suspension buffer and further diluted in RNase-free PBS before use. siRNA targeting rat Nrf-2 (sc-37030, SANTA CRUZ BIOTECHNOLOGY®, USA) was administered through hydrodynamic tail vein injection. Nrf-2 or scrambled siRNA ([…] in 10 ml of PBS) was rapidly injected (within 30 s) via a tail vein under anaesthesia and allow to recover for 24 h before the experiment. Atipamezole (α2-adrenergic antagonist, SIGMA-ALDRICH®, St. Louis, Mo., USA, 250 μg/kg, i.p.) was administered 10 minutes graft extraction.
# In order to further investigate the mechanisms underlying the protective effects of dexmedetomidine on lung grafts, Nrf-2 siRNA and atipamezole treatment was administered donor before lung grafts extraction. The grafts were subsequently stored in Dex-saturated UW solution. TLR-4 and RIP3 immunofluorescent labelling was performed in lung grafts, with and without Nrf-2 siRNA (FIG. 9A), and with and without atipamezole treatment (FIG. 9B). […] 3-nitrotyrosine and 4-hydroxynonenal immunofluorescent labelling was performed in lung alveolar cells at CI 16 h, with and without Nrf-2 siRNA or with and without atipamezole treatment (FIGS. 9E and 9F) at CI 16 h. […] Together, these findings indicate that upregulation of the Nrf-2 and α2 adrenergic pathways are both critical to the protective effects of Dex on lung grafts. […] With respect to FIGS. 9A-9K, Lewis rat lung grafts were extracted after cardiac death and stored in 4° C. UW solution saturated with Dex (0.1 nM) or without Dex (Vehicle) for 16 hours (lung graft cold ischemia CIO 16 hr). Nrf-2 siRNA or atipamezole was given to the donor before graft extracting. Dual labelling of Rip-3 (red) and TLR-4 (green) in lung tissue after (FIG. 9A) SiRNA treatment or (FIG. 9B) atipamezole. Fluorescent intensity of (FIG. 9C) RIPK3 and (FIG. 9D) TLR-4 in lung tissue. The expression of 3-nitrotyrosine and 4-hydroxynonenal was assessed with immunofluorescent labelling after (FIG. 9E) SiRNA treatment or (FIG. 9F) Atipamezole. Fluorescent intensity of (FIG. 9G) 3-nitrotyrosine and (FIG. 9H) 4-hydroxynonenal. Nuclei were counterstained with 4′,6-diamidino-2-phenylindole (DAPI) (blue). (FIGS. 9I and 9K) Histology (haematoxylin and eosin staining) of the lung graft and injury score. (FIG. 9J) HMGB-1 in lung graft tissue, were assessed by ELISA. Scale bar: 50 μm. […] NC: naïve control, rCI: renal graft cold ischemia. HMGB, high mobility group box 1 protein; CI, cold ischaemia; NC, naïve control; TLR-4, toll-like receptor 4.
# kidney = details: in vivo; cited from earlier work
# [5] = system: isografts, weak immune-allografts and strong immuno-allografts; details: xenon to living donor before graft retrieval or to recipient after engraftment; cited from earlier work
# ex-vivo rat kidney = details: cited from earlier work
# [6] = ice-cold Soltran saturated with 70% Xe, 24 hrs, vs 70% N2
smiles,measurement,setting,value
[Ar] [argon],neuroprotection,brain,neuro-protective
same,"renal architecture during prolonged cold preservation (H&E injury score, TUNEL)",[1],preserved the renal architrave
same,"organ graft injury, histologically and functionally",[2],prevent organ graft injury
same,preservation of renal grafts against hypothermic-ischemic injury,[3],superior in preserving renal grafts
"CCC1(c2cnc[nH]2)Cc2ccccc2C1 [atipamezole, Atipamezole]",3-nitrotyrosine expression (fluorescent intensity),[4]; CI 16 h,significant increase
same,4-hydroxynonenal expression (fluorescent intensity),[4]; CI 16 h,significant increase
same,HMGB-1 expression in lung graft tissue (ELISA),[4]; CI 16 hr,significantly increased
same,expression of RIP3 (fluorescent intensity),[4]; CI 16 hr,enhanced expression
same,lung injury scoring,[4]; CI 16 hr,significant increase
same,lung morphology (H&E),[4]; CI 16 hr,deteriorated significantly
same,expression of TLR-4 (fluorescent intensity),"[4]; CI 16 hr, p<0.01",enhanced expression
[Xe] [xenon],kidney warm ischemic injury,kidney,protect against kidney warm ischemic injury
same,"renal architecture during prolonged cold preservation (H&E injury score, TUNEL)",[1],preserved the renal architrave
same,early graft injury,[5],protected against early graft injury
same,graft survival,[5],prolonged graft survival
same,"organ graft injury, histologically and functionally",[2],prevent organ graft injury
same,delayed graft function,ex-vivo rat kidney; after engraftment,reduced
same,renal inflammation,ex-vivo rat kidney; after engraftment,reduced
same,fibrosis,ex-vivo rat kidney; day 8 after surgery,significantly reduced
same,macrophage infiltration,ex-vivo rat kidney; day 8 after surgery,significantly reduced
same,expression of Bcl-2,ex-vivo rat kidney; [6],enhanced expression
same,expression of HSP-70,ex-vivo rat kidney; [6],enhanced expression
same,tubular cell death,ex-vivo rat kidney; twenty-four hrs after engraftment,significantly decreased
same,morphological structure of the ex-vivo rat kidney,ex-vivo rat kidney; xenon-containing Soltran solution,well preserved
